From patent publication US11267815B2, “Class of amino-substituted nitrogen-containing fused ring compounds, preparation method therefor, and use thereof” (SHANGHAI RINGENE BIOPHARMA CO., LTD., priority 2017, dated 2022)
Read-outs that look alike come from different tables or passages of the source.

What was measured:
[1] = molecular target: FGFR4 (Homo sapiens (Human), UniProt P22455); assay: Inhibitory activity on kinase FGFR4 (Caliper mobility shift); assay type: biochemical
Method: (1). Preparation of 1×Kinase buffer; (2) Preparation of the gradient concentrations of the compounds: the concentration of the compounds to be tested started from 10 μM, which was 3-fold diluted to prepare 10 dilutions, and then tested in duplicated wells. The compounds were 100-fold serially diluted into 10 dilutions with different final concentrations in 96-well plates, each of which was further diluted with 1×Kinase buffer to prepare an intermediate dilution having a concentration of 5 times the final concentration; (3) adding 5 μL of each of the prepared compound solution into the compound wells of 384-well plates, and each concentration set single well; adding 5 μL of 5% DMSO into negative control wells and positive control wells respectively; (4) preparing a kinase solution having a concentration of 2.5 times the final concentration with 1×kinase buffer; (5) adding 10 μL of kinase solution at a concentration of 2.5 times the final concentration into the compound wells and the positive control wells respectively; and adding 10 μL of 1×Kinase buffer into the negative control wells; (6) centrifuging at 1000 rpm for 30 seconds, and incubating at room temperature for 10 minutes after shaking and mixing evenly; (7) preparing a mixed solution of ATP and Kinase substrate 22 having a concentration of 2.5 times the final concentration with 1×Kinase Buffer; (8) adding 10 μL of the mixed solution of ATP and substrate at a concentration of 2.5 times the final concentration to initiate the reaction; (9) Centrifuging the 384-well plates at 1000 rpm for 30 seconds, and incubating at 28° C. for corresponding time respectively after shaking and mixing; (10) adding 30 μL of stop detection solution to stop the kinase reaction, centrifuging at 1000 rpm for 30 seconds, and shaking and mixing the mixture evenly; (11) reading the conversion rate by Caliper Ezreader II. The dose-effect curve was fitted by the log (inhibitor) vs. response-variable slope of GraphPad Prism 5 with the log value of concentration as the X axis and the percentage inhibition rate as the Y axis, then the IC50 value of each compound on the enzyme activity was obtained.

[2] = system: Hep3B cells; assay: Hep3B cell proliferation (CellTiter-Glo, 72 hours); assay type: cell-based; details: Homo sapiens, Hep3B
Method: 1. Test method: inoculating Hep3B cells (ATCC) in logarithmic growth phase at an appropriate density in a 96-well culture plate, with 100 μL per well. After overnight culture, different concentrations of compounds were added to stay for 72 hours, and menstruum control group (negative control) was set, and the incubation was performed under the condition of 5% CO2 at 37° C. Adding 10 mM compound stock solution to the cells, after the cells were incubated with the compounds for 72 hours, the effects of the compounds on cell proliferation were determined by CellTiter-Glo (Promega) method. 30 μL CTG reagent was added to each well and the resulting mixtures were placed in a 37° C. incubator for 2-4 hours. Then the plate was read by a full-wavelength microplate enzyme reader Envision at a […].
The inhibition rates (%) of the compounds on tumor cell growth were calculated by the following formula: inhibition rate (%)=(OD negative control well−OD administration well)/OD negative control well×100%. IC50 values were obtained by four parameters regression using Graphpad Prism 5 software.

[3] = system: various tumor cells (HuH-7, SNU-16, KG1, UM-UC-14, RT-112 etc.); assay: Proliferation inhibitory activity on various tumor cells (SRB or CCK8); assay type: cell-based; details: SRB or CCK8 method; read-out: proliferation inhibitory activities on various tumor cells
[4] = ADME tests: liver microsome metabolic stability and direct inhibition test; assay type: in vitro ADME; details: metabolic stability, direct inhibition test
Method: (1) Metabolic stability test: 150 μL system of liver microsome (final concentration 0.5 mg/mL) was used for metabolic stability incubation, the system contained NADPH (final concentration 1 mM), 1 μM test compound and positive control Midazolam or negative control Atenolol, then the reaction was terminated with Tinidazole-containing acetonitrile at 0 min, 5 min, 10 min and 30 min respectively, and the mixtures were vortexed for 10 minutes and centrifuged for 10 minutes at 15000 rmp, 50 μL of the supernatants were added into 96-well plate for injection. The metabolic stability of the compounds was calculated by measuring the relative reduction of the original drug.
(2) Direct inhibition test (DI test): Direct inhibition incubation was carried out with 100 μL system of human liver microsome (final concentration 0.2 mg/mL), the system containing NADPH (final concentration 1 mM), 10 μM compound, positive inhibitor cocktail (Ketoconazole 10 μM, Quinidine 10 μM, Sulfaphenazolum 100 μM, α-Naphthoflavone 10 μM, Tranylcypromine 1000 μM), negative control (BPS containing 0.1% DMSO) and mixed probe substrates (Midazolam 10 μM, Testosterone 100 μM, Dextromethorphan […], Diclofenac 20 μM, Phenacetin 100 μM, Mephenytoin 100 μM) was incubated for 20 minutes and then the reaction was terminated. The relative activity of enzymes was calculated by measuring the relative production of metabolites.

Chain of FGFR4 (P22455 22-802): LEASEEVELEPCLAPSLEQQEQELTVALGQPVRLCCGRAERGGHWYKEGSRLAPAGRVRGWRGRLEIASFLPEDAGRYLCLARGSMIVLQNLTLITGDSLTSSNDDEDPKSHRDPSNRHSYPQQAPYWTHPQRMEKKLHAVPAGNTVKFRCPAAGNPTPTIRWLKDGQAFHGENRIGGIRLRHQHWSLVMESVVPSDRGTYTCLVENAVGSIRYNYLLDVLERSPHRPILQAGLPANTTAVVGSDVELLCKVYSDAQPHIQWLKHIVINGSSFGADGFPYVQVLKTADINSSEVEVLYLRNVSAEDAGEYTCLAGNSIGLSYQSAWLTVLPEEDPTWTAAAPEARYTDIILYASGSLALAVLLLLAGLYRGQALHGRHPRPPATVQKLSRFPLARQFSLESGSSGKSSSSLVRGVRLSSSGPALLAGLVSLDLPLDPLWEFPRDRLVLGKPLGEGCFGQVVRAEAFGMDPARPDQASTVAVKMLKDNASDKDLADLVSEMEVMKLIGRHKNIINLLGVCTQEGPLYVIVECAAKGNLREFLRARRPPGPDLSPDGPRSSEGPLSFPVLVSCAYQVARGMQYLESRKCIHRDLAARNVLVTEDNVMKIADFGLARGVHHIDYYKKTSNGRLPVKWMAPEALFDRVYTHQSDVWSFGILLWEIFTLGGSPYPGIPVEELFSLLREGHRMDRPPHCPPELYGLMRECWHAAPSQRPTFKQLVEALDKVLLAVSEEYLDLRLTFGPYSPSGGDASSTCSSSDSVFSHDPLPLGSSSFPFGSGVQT

IC50 ([1]; read-out: FGFR4 IC50): < 20 nM | IC50 ([1]; read-out: IC50 of inhibitory activity on FGFR4): < 1 nM | IC50 ([2]; read-out: Hep3B IC50): < 20 nM | IC50 ([2]; read-out: Hep3B cells inhibitory activity IC50): < 10 nM | IC50 [3]: < 100 nM | ADME properties [4]: better ADME properties
SMILES: C=CC(=O)N1CCN(CCCc2cn3c(n2)c(-c2c(Cl)c(OC)cc(OC)c2Cl)cc2cnc(NC)nc23)CC1 [Embodiment 3, 1-(4-(3-(6-(2,6-dichloro-3,5-dimethoxyaniline)-2-(methylamine)imidazo[1′,2′:1,6]pyrido[2,3-d]pyrimidin-8-yl)propyl)piperazine-1-yl)prop-2-en-1-one]
